The record followed here is patent publication US8134010B2, “Thiazole-based nitric oxide donors having aryl substituent(s) and uses thereof” (priority 2004, dated 2012).

“Also recorded” adds a separate entry of the source.

Assay [1] has as its system isolated rat aorta. Put plainly: Chronic administration of Pet-120 and vasoactivity determination in isolated aorta. The format is in vivo. Conditions: Pet-120 for 7 days. Here is the method: Male Sprague Dawley rats (250 to 300 grams) were used and housed under constant temperature and humidity conditions. The animals were anesthetized with intraperitoneal injection of ketamine and xylazine combination (50 and 10 mg/kg, respectively). An osmotic miniature pump (ALZA Corp., Palo Alto, Calif.) delivering constant volume (10 μl/hour) of vehicle and Pet-120 was connected to one of the intravenous catheters. The animals received 200 μg/hour for 7 days. As control, a similar number of animals underwent the same surgical procedure and received the vehicle alone (10 μl/hour of a solution consisting of 30% ethanol and 30% propylene glycol in sterile distilled water for injection). At the end of the infusion periods the rats were anesthetized by the combination described above. The abdomen was opened by midline incision and the thoracic aorta was isolate, washed and cleaned from the surrounding tissues.
The aorta of the rats which were treated as described hereinabove was cut into rings of 4-5 mm long each. The rings were mounted under 1 g tension in organ bath containing 30 ml of Krebs-Hansliet solution (pH 7.4) of the following composition (mM): NaCl […], CaCl2 1.6, MgSO4 1.2, KH2PO4 1.2, NaHCO3 25.0, D-glucose 11.1. At 37 C° and gassed with 95% O2- 5% CO2. […]

Assay [2] concerns cyclic-GMP in isolated aorta of rats. Put plainly: Induction of in vivo nitrate tolerance (cGMP in isolated aorta of rats pre-treated in vivo). Details: species or system rat. To be noted: rats pre-treated in vivo with the same compound. As to the method:
For c-GMP levels and tolerance development, the rat's thoracic aorta was isolated after exposure to the tested compound in vivo, and measured as described above in the in vitro assays.
Male Sprague Dawley rats (220 to 250 grams) were housed under constant temperature and humidity conditions. Light was maintained at a 12/12 light dark cycle. Except for 12 hours before the experiment, when food fasting was initiated, all rats had free access to standard rat pellet diet and tap water. The animals were anesthetized by intraperitoneal injection of ketamine and xylazine combination (50 and 10 milligram per kilogram, respectively). […] The catheters were filled with normal saline solution containing 1000 IU/ml of heparin and plugged with a metal pin. Catheters were externalized to the back of the neck region and secured by a polyester felt disk.
After implantation, the rats were individually housed until they regained their preoperative weight and appeared healthy (3 to 4 days post-operation). At this time point (day 0), an osmotic mini-pump (Alza Corp., Palo Alto, Calif.) delivering constant volume (10 μl/hour) of vehicle or drug was connected to one of the intravenous catheters.
For inducing tolerance to the tested NO-donor according to the present invention, the animals received 200 μg/hour of the tested compound for 16 hours (short-term-induced tolerance). A similar number of animals were processed by the same surgical procedure and received the vehicle alone (10 μl/hour of a solution consisting of 30% ethanol and 30% propylene glycol in sterile distilled water for injection).
At the end of the infusion periods used for the development of tolerance (16 hour), the rats were anesthetized as described above, the two catheters were externalized and the delivering catheters were disconnected from the mini-pump. The abdomen was opened by midline incision and the thoracic aorta were isolated, washed and cleaned from the surrounding tissues. […]

Assay [3] relates to Sprague-Dawley rats. Nature of the assay: Effect of Pet-120 on mean arterial blood pressure (MABP) after intravenous bolus infusion. The format is in vivo, rat. To be noted: 50 micrograms Pet-120 after 10 micrograms phenylephrine. As to the method: Male Sprague-Dawley rats weighing 310 grams at the beginning of the experiments were anesthetized with ketamine and xylazine (50 and 10 mg/kg, respectively), and an osmotic miniature pump (model 2002; ALZA Co filled with L-NAME) was canulated to right jugular vien (RJV) and implanted subcutaneously at the dorsum of the neck. L-NAME was infusion from ALZA miniature pump at a rate of 500 ng/minute for 24 hours. One day after the rat was anesthetized again with ketamine and xylazine and the both left jugular vein (LJV) and right common carotid (for MABP monitoring) was canulated. After the rats stabilized, Pet-120 was administered through the LJV (50 μg).
The efficacy of Pet-120, an exemplary NO-donating compound according to some embodiments of the present invention, was assayed as presented hereinabove in animals which were treated with phenylephrine so as to heighten their mean arterial blood pressure.

Take `Cc1nc(-c2ccc([N+](=O)[O-])cc2)sc1CCO[N+](=O)[O-]` [Pet-120, 4-Methyl-5-(2-nitrooxy-ethyl)-2-(4-nitro-phenyl)-thiazole]: the “tolerance induction after daily in-vivo administration over 7 days versus single dose (vasorelaxation in isolated aorta)” value in assay [1] is “absence of tolerance inducement; also recorded: not to induce tolerance”. Also, the “tolerance induction by cyclic-GMP accumulation in aorta of rats pre-treated in vivo” value in assay [2] was “absence of tolerance induction”. In assay [3], the “effect on mean arterial blood pressure (MABP)” value is listed as “reducing the MABP to its original levels”.
